Read-outs that look alike come from different tables or passages of the source.
Legend:
mannose receptor (CD206) [1] = target: T1, mannose receptor (CD206) (Homo sapiens, UniProt P22897); conditions: for Mean Joint Specific MARTAD: 5 healthy subjects, IV, 10 mCi 99mTc; for Cutoff Value (MARTAD 2 S.D. above the joint specific mean): from 5 healthy subjects
Experimental: In certain aspects, the pixel intensities of the ROI and RR are used to derive normalized region-specific mannose receptor targeted localization determination (MARTAD) value. The MARTAD value is quantitative index of the amount of imaging agent localization that can be attributable to disease activity in planar images. Defined broadly, the MARTAD value is determined by assessing the ratio of average pixel intensity of the ROI to the average pixel intensity of the RR. In certain alternative embodiments, the MARTAD value is determined by assessing the ratio of maximum pixel intensity of the ROI to the maximum pixel intensity of the RR.
Following MARTAD value determination for a joint or plurality of joints, the MARTAD value can be used to determine macrophage involvement by comparing the MARTAD of the first joint to a normal MARTAD value for a corresponding joint (e.g., RtPIP2 RA vs RtPIP2 healthy). In certain implementations, the normal MARTAD value is determined by aggregating the MARTAD values for each joint from a pool of healthy subjects (e.g., not suffering from RA). In exemplary implementations, the method for defining the joint specific RR in the pool of healthy subjects will be the same as that used for the patient population. Macrophage involvement in a subject is indicated by a joint specific MARTAD value that exceeds the normal MARTAD value by a predetermined threshold. […] In certain alternative implementations, the predetermined threshold subject joint MARTAD value greater above the 95% confidence interval of the average MARTAD value corresponding joint from the plurality of healthy subjects.
(§1) The mass dose of tilmanocept injected into the subjects varied from 125 μg to 400 μg. […] The images shown in FIGS. 1 and 2 were acquired using a Siemens Symbia Intevo camera. Image acquisition times varied between studies from 5-10 minutes.
Cutoff values for determination of macrophage involvement in RA inflammation set at MARTAD values greater than 2 S.D. above the joint specific mean.

mannose receptor (CD206) [2] = target: T1, mannose receptor (CD206)
Experimental: as §1

T1 sequence (P22897 19-1456): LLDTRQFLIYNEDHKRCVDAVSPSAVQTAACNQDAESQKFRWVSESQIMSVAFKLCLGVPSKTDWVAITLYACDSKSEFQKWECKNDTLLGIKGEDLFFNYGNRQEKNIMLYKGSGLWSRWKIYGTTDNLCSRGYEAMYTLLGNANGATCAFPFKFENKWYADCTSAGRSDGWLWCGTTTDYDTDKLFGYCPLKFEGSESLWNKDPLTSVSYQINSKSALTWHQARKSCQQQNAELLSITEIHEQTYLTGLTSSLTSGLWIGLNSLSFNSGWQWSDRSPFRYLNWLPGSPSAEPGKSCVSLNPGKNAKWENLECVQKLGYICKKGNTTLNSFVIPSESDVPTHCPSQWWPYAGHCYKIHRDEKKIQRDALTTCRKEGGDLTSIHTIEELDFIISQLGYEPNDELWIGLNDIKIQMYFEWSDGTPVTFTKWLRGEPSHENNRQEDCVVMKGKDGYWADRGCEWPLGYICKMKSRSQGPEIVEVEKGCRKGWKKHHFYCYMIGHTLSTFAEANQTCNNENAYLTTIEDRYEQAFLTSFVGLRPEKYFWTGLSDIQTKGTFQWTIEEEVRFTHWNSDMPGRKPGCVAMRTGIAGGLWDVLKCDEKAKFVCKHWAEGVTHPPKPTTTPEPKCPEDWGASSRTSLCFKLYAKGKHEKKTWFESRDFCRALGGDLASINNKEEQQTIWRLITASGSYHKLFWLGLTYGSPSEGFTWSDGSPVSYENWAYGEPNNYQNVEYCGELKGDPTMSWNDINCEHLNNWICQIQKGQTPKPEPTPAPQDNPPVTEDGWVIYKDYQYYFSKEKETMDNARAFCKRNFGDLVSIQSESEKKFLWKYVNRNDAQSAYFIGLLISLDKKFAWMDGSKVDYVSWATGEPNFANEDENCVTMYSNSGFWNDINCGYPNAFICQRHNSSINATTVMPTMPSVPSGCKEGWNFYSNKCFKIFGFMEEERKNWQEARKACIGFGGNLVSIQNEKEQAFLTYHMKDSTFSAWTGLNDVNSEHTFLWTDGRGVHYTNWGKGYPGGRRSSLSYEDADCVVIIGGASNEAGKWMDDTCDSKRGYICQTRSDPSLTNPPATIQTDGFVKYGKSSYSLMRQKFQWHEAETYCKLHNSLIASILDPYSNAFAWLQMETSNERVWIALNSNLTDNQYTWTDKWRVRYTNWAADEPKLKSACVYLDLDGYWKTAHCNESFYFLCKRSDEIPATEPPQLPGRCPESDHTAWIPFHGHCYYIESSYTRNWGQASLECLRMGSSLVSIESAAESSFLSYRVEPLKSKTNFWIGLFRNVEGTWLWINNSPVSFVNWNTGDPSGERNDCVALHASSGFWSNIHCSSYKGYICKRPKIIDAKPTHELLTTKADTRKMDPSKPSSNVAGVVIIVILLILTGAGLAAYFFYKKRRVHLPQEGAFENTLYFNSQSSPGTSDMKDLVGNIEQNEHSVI

dextran 3-[(2-aminoethyl)thio]propyl 17-carboxy-10,13,16-tris(carboxymethyl)-8-oxo-4-thia-7,10,13,16-tetraazaheptadec-1-yl 3-[[2-[[1-imino-2-(D-mannopyranosylthio)ethyl]amino]ethyl]thio]propyl ether complexes [Tc99m-tilmanocept]
Mean Joint Specific MARTAD (mannose receptor (CD206) [1]; MCP1): 0.87 | Cutoff Value (MARTAD 2 S.D. above the joint specific mean) (mannose receptor (CD206) [1]; MCP1): 0.99 | Mean Joint Specific MARTAD (mannose receptor (CD206) [1]; MCP2): 0.86 | Cutoff Value (MARTAD 2 S.D. above the joint specific mean) (mannose receptor (CD206) [1]; MCP2): 1.13 | Mean Joint Specific MARTAD (mannose receptor (CD206) [1]; MCP3): 0.79 | Cutoff Value (MARTAD 2 S.D. above the joint specific mean) (mannose receptor (CD206) [1]; MCP3): 0.93 | Mean Joint Specific MARTAD (mannose receptor (CD206) [1]; MCP4): 0.77 | Cutoff Value (MARTAD 2 S.D. above the joint specific mean) (mannose receptor (CD206) [1]; MCP4): 1.00 | Mean Joint Specific MARTAD (mannose receptor (CD206) [1]; MCP5): 0.76 | Cutoff Value (MARTAD 2 S.D. above the joint specific mean) (mannose receptor (CD206) [1]; MCP5): 1.08 | Mean Joint Specific MARTAD (mannose receptor (CD206) [1]; PIP1): 0.98 | Cutoff Value (MARTAD 2 S.D. above the joint specific mean) (mannose receptor (CD206) [1]; PIP1): 1.21 | Mean Joint Specific MARTAD (mannose receptor (CD206) [1]; PIP2): 1.05 | Cutoff Value (MARTAD 2 S.D. above the joint specific mean) (mannose receptor (CD206) [1]; PIP2): 1.34 | Mean Joint Specific MARTAD (mannose receptor (CD206) [1]; PIP3): 1.03 | Cutoff Value (MARTAD 2 S.D. above the joint specific mean) (mannose receptor (CD206) [1]; PIP3): 1.39 | Mean Joint Specific MARTAD (mannose receptor (CD206) [1]; PIP4): 0.93 | Cutoff Value (MARTAD 2 S.D. above the joint specific mean) (mannose receptor (CD206) [1]; PIP4): 1.19 | Mean Joint Specific MARTAD (mannose receptor (CD206) [1]; PIP5): 0.87 | Cutoff Value (MARTAD 2 S.D. above the joint specific mean) (mannose receptor (CD206) [1]; PIP5): 1.14 | Mean Joint Specific MARTAD (mannose receptor (CD206) [1]; Wrists, images 45-75 min after injection): 1.04 | Cutoff Value (MARTAD 2 S.D. above the joint specific mean) (mannose receptor (CD206) [1]; Wrists): 1.24 | Sensitivity of MARTAD values to image acquisition time (mannose receptor (CD206) [2]; image acquisition times 5-10 minutes): not sensitive | Effect of mass dose on image quality (mannose receptor (CD206) [2]; mass dose of tilmanocept 125 μg to 400 μg IV, separate studies (not shown)): did not impact image quality | MARTAD values of repeat images versus first images (mannose receptor (CD206) [2]; repeat images 180-240 minutes after injection vs 45-75 minutes, same subjects): statistically similar

— patent US20200237937A1, “COMPOSITIONS AND METHODS FOR ASSESSING […] PATHOLOGY” (Navidea Biopharmaceuticals, Inc., priority 2019, published 2020)
